What follows are compounds tested against Factor XIa (Homo sapiens (Human), UniProt P03951) (assay: Factor XIa enzyme inhibition assay (dose response, fluorogenic AMC substrate)). Conditions: read-out: hFXIa IC50.
Type: biochemical
Method: • Assay buffer: 20 mM Hepes, pH 7.4; 150 mM NaCl; 0.02% Tween 20 • Compounds: 10 mM stocks in DMSO • Substrate: 20 mM Glp-Pro-Arg-AMC, 25 mg/2.3 mL H2O (store at +4° C.) [Factor XIa, thrombin, and trypsin] • 20 mM Pro-Phe-Arg-AMC (Bachem I-1295), 25 mg/2.2 mL H2O • or Boc-Leu-Gly-Arg-AMC (Bachem I-1105), 25 mg/2.07 mL H2O • (store at +4° C.) [Factor Xa] • Enzyme: Factor XIa; 0.25 μM in 50% glycerol (20 μg/mL) • Trypsin; 0.2 μM in 50% glycerol (4.8 μg/mL) • Thrombin; 0.2 μM in 50% glycerol (7.34 μg/mL) • Factor Xa; 0.2 μM in 50% glycerol (9.2 μg/mL) • These stocks are aliquoted (˜100 μL/aliquot) and stored at −20° C. Methods: • 1. Dilute the substrate to 100 μM in assay buffer (30 μL/6 mL). The enzyme is diluted to 0.5 nM just prior to use (12 μL/6 mL for Factor XIa; 15 μL/6 mL for all of the rest.) • 2. Pipette 50 μL of substrate into each well of the 96 well (12×8) microtiter plate. (Column 1 is used as the 100% activity control and receives no compound, and Column 12 is the blank and receives no enzyme.) Add an additional 46 μL to column 2. • 3. Pipette 4 μL of each compound into the appropriate well in column 2 of the plate (unknowns assayed in triplicate, standard assayed in duplicate). The final compound concentration will be […] of the stock. • 4. Serially two-fold dilute the compound by mixing the sample in column 2, removing 50 μL to the next well (column 3), mix and remove to column 4, etc. until column 11. After mixing column 11, remove 50 μL and discard. • 5. Pipette 50 μL of buffer into column 12. Initiate the reaction by adding 50 μL of enzyme solution to each well of columns 1-11 as rapidly as possible. • 6. Read the plate in a spectrophotometer (SpectraMax) at 30° C., wherein each well is measured every 60 s for 30 min. For Factor Xa assays, each well is measured every 1 min for a total of 60 min. • 7. For Factor XIa assays, the compounds are assayed, in duplicate, at 3 different starting concentrations, 20, 2, and 0.2 μM; 1:10, 1:100, and 1:1000 dilution of 10 mM stock or at 2, 0.2, and 0.02 μM; 1:100, 1:1000, and 1:10,000 dilution of 10 mM stock. Data for each concentration are combined for graphing and data fitting. • 8. Data can be used both for estimation of IC50 and for estimation of Kon.
Potential inhibitors of Factor XIa were evaluated using the following assay.
PyroGlu-Pro-Arg-7-methylaminocourin (AMC), available from CPC Scientific, Inc., is based on the substrate pyro-Glu-Pro-Arg-pNA (S-2366), available from Diapharma Group, Inc. (Columbus, Ohio), wherein the p-nitroanaline group is replaced with 7-methylaminocoumarin (AMC).
The final concentration of the substrate in the assay was 50 μM, and the final concentration of the enzyme was 0.25 nM. Inhibitors were tested by serial dilution over an appropriate range to yield a dose response curve for determination of the inhibitors' IC50 value. The assay mixture was read every minute for 30 minutes in order to generate progress curves. The plates were read in a Spectramax m5 Multimode Plate Reader (Molecular Devices LLC, Sunnyvale, Calif.). Dose response curves were fit to Equation 1 below in which A is the maximum inhibition, B is the minimum inhibition, C is the IC50, and D is the Hill coefficient. Y=[(A−B)/(1+(X/C)^D)]+B (Equation 1)

Factor XIa, sequence (P03951 388-625): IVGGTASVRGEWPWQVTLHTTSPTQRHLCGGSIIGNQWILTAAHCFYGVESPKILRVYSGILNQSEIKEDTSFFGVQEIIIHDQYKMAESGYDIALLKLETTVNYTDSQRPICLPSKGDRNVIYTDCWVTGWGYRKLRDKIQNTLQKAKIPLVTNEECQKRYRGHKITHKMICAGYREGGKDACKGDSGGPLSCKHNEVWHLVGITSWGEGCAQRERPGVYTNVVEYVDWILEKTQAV
Factor XIa, sequence (P03951 19-387 partner): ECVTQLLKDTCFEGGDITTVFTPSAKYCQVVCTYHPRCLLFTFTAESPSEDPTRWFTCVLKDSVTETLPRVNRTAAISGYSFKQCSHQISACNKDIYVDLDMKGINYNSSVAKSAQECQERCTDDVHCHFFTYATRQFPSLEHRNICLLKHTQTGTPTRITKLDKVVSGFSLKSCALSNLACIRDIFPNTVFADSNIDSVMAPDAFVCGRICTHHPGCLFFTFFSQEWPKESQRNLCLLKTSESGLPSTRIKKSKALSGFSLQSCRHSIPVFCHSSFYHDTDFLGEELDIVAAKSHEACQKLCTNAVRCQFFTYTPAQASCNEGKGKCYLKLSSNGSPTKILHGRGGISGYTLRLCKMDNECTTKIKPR

Compound	IC50 [nM]
CC(C)[C@@H](NC(=O)N1C(=O)[C@H](Cc2ccnc(N)c2)[C@H]1C(=O)N(C)c1nccn1C)c1ccccc1 [Compound 1-85, (2S,3R)-3-((2-aminopyridin-4-yl)methyl)-N2-(1-methyl-1H-imidazol-2-yl)-N1-((R)-1-phenyl-2-methylpropyl)-N2-methyl-4-oxoazetidine-1,2-dicarboxamide]	10 to 100
CN(C(=O)[C@@H]1[C@@H](Cc2ccnc(N)c2)C(=O)N1C(=O)NCc1cccc(Cl)c1)c1cnn(C)c1 [Compound 1-27, (2S,3R)-3-((2-aminopyridin-4-yl)methyl)-N2-(1-methyl-1H-pyrazol-4-yl)-N1-((3-chlorophenyl)methyl)-N2-methyl-4-oxoazetidine-1,2-dicarboxamide]	10 to 100
CCCC[C@@H](NC(=O)N1C(=O)[C@H](Cc2ccnc(N)c2)[C@H]1C(=O)N(C)c1ccn(C)n1)C1CCCCC1 [Compound 1-73, (2S,3R)-3-((2-aminopyridin-4-yl)methyl)-N2-(1-methyl-1H-pyrazol-3-yl)-N1-((R)-1-cyclohexylpentyl)-N2-methyl-4-oxoazetidine-1,2-dicarboxamide]	10 to 100
CC[C@H](c1cccc(Cl)c1)N(C)C(=O)N1C(=O)[C@H](Cc2ccnc(N)c2)[C@H]1C(=O)N(C)c1ccn(C)n1 [Compound 1-7, (2S,3R)-3-((2-aminopyridin-4-yl)methyl)-N2-(1-methyl-1H-pyrazol-3-yl)-N1-((R)-1-(3-chlorophenyl)propyl)-N1-methyl-N2-methyl-4-oxoazetidine-1,2-dicarboxamide]	10 to 100
(2S,3R)-3-((2-aminopyridin-4-yl)methyl)-N2-(1-methyl-1H-imidazol-2-yl)-N1-((R)-1-(3-chlorophenyl)propyl)-N1-methyl-N2-methyl-4-oxoazetidine-1,2-dicarboxamide [Compound 1-65]	10 to 100
CC[C@@H](NC(=O)N1C(=O)[C@H](Cc2ccnc(N)c2)[C@H]1C(=O)N(C)c1ccn(C)n1)c1ccccc1F [Compound 1-133, (2S,3R)-3-((2-aminopyridin-4-yl)methyl)-N2-(1-methyl-1H-pyrazol-3-yl)-N1-((R)-1-(2-fluorophenyl)propyl)-N2-methyl-4-oxoazetidine-1,2-dicarboxamide]	10 to 100
CC[C@@H](NC(=O)N1C(=O)[C@H](Cc2cc(C)nc(N)c2)[C@H]1C(=O)N(C)c1cnn(C)c1)c1cccc(C)c1C [Compound 1-173, (2S,3R)-3-((2-amino-6-methylpyridin-4-yl)methyl)-N2-(1-methyl-1H-pyrazol-4-yl)-N1-((R)-1-(2,3-dimethylphenyl)propyl)-N2-methyl-4-oxoazetidine-1,2-dicarboxamide]	10 to 100
CC[C@@H](NC(=O)N1C(=O)[C@H](Cc2cc(C)nc(N)c2)[C@H]1C(=O)N(C)c1nccn1C)c1ccc(C)nc1 [Compound 1-82, (2S,3R)-3-((2-amino-6-methylpyridin-4-yl)methyl)-N2-(1-methyl-1H-imidazol-2-yl)-N1-((R)-1-(6-methylpyridin-3-yl)propyl)-N2-methyl-4-oxoazetidine-1,2-dicarboxamide]	10 to 100
CC[C@@H](NC(=O)N1C(=O)[C@H](Cc2ccnc(N)c2)[C@H]1C(=O)N(C)c1cccs1)c1ccn(C)n1 [Compound 1-49, (2S,3R)-3-((2-aminopyridin-4-yl)methyl)-N2-(thiophen-2-yl)-N1-((R)-1-(1-methyl-1H-pyrazol-3-yl)propyl)-N2-methyl-4-oxoazetidine-1,2-dicarboxamide]	10 to 100
CC[C@@H](NC(=O)N1C(=O)[C@H](Cc2ccnc(N)c2)[C@H]1C(=O)N(C)c1nccn1C)c1ccc(C)c(F)c1F [Compound 1-192, (2S,3R)-3-((2-aminopyridin-4-yl)methyl)-N2-(1-methyl-1H-imidazol-2-yl)-N1-((R)-1-(2,3-difluoro-4-methylphenyl)propyl)-N2-methyl-4-oxoazetidine-1,2-dicarboxamide]	< 10
CC[C@@H](NC(=O)N1C(=O)[C@H](Cc2ccnc(N)c2)[C@H]1C(=O)N(C)c1nccn1C)c1cc(C)c(F)c(C)c1 [Compound 1-195, (2S,3R)-3-((2-aminopyridin-4-yl)methyl)-N2-(1-methyl-1H-imidazol-2-yl)-N1-((R)-1-(3,5-dimethyl-4-fluorophenyl)propyl)-N2-methyl-4-oxoazetidine-1,2-dicarboxamide]	< 10

More lines, now with the values ahead:

IC50 [nM]	Compound
< 10	CC[C@@H](NC(=O)N1C(=O)[C@H](Cc2cc(C)nc(N)c2)[C@H]1C(=O)N(C)c1cnn(C)c1)c1ccc(C)c(C)c1 [Compound 1-175, (2S,3R)-3-((2-amino-6-methylpyridin-4-yl)methyl)-N2-(1-methyl-1H-pyrazol-4-yl)-N1-((R)-1-(3,4-dimethylphenyl)propyl)-N2-methyl-4-oxoazetidine-1,2-dicarboxamide]
< 10	CC[C@@H](NC(=O)N1C(=O)[C@H](Cc2ccnc(N)c2)[C@H]1C(=O)N(C)c1ccn(C)n1)c1cc(C)ccc1C [Compound 1-132, (2S,3R)-3-((2-aminopyridin-4-yl)methyl)-N2-(1-methyl-1H-pyrazol-3-yl)-N1-((R)-1-(2,5-dimethylphenyl)propyl)-N2-methyl-4-oxoazetidine-1,2-dicarboxamide]
< 10	CC[C@@H](NC(=O)N1C(=O)[C@H](Cc2ccnc(N)c2)[C@H]1C(=O)N(C)c1nccn1C)c1ccc(Cl)cc1C [Compound 1-118, (2S,3R)-3-((2-aminopyridin-4-yl)methyl)-N2-(1-methyl-1H-imidazol-2-yl)-N1-((R)-1-(4-chloro-2-methylphenyl)propyl)-N2-methyl-4-oxoazetidine-1,2-dicarboxamide]
< 10	CC[C@@H](NC(=O)N1C(=O)[C@H](Cc2ccnc(N)c2)[C@H]1C(=O)N(C)c1nccn1C)c1ccc(F)c(F)c1C [Compound 1-212, (2S,3R)-3-((2-aminopyridin-4-yl)methyl)-N2-(1-methyl-1H-imidazol-2-yl)-N1-((R)-1-(3,4-difluoro-2-methylphenyl)propyl)-N2-methyl-4-oxoazetidine-1,2-dicarboxamide]
< 10	CC[C@@H](NC(=O)N1C(=O)[C@H](Cc2ccnc(N)c2)[C@H]1C(=O)N(C)c1cscn1)c1cccc(C)c1 [Compound 1-24, (2S,3R)-3-((2-aminopyridin-4-yl)methyl)-N2-(4-thiazolyl)-N1-((R)-1-(3-methylphenyl)propyl)-N2-methyl-4-oxoazetidine-1,2-dicarboxamide]
< 10	CC[C@@H](NC(=O)N1C(=O)[C@H](Cc2ccnc(N)c2)[C@H]1C(=O)N(C)c1ccn(C)n1)c1cc(F)ccc1C [Compound 1-135, (2S,3R)-3-((2-aminopyridin-4-yl)methyl)-N2-(1-methyl-1H-pyrazol-3-yl)-N1-((R)-1-(5-fluoro-2-methylphenyl)propyl)-N2-methyl-4-oxoazetidine-1,2-dicarboxamide]
< 10	CC[C@@H](NC(=O)N1C(=O)[C@H](Cc2cc(C)nc(N)c2)[C@H]1C(=O)N(C)c1ccnn1C)c1ccc(F)cc1 [Compound 1-156, (2S,3R)-3-((2-amino-6-methylpyridin-4-yl)methyl)-N2-(1-methyl-1H-pyrazol-5-yl)-N1-((R)-1-(4-fluorophenyl)propyl)-N2-methyl-4-oxoazetidine-1,2-dicarboxamide]
< 10	CC[C@@H](NC(=O)N1C(=O)[C@H](Cc2ccnc(N)c2)[C@H]1C(=O)N(C)c1nncs1)c1ccccc1 [Compound 1-168, (2S,3R)-3-((2-aminopyridin-4-yl)methyl)-N2-(1,3,4-thiadiazol-2-yl)-N1-((R)-1-phenylpropyl)-N2-methyl-4-oxoazetidine-1,2-dicarboxamide]
